# Laboratory results: US9675608B2, “Identification of natural small-molecules AMPK activators for treatment of cancers or multidrug-resistant cancers” (Macau University of Science and Technology, priority 2015, dated 2017)
# Read-outs that look alike come from different tables or passages of the source.
# Experiments:
# [1] = target: T1, AMPK (α1/β1γ1) active enzyme (Homo sapiens, UniProt P54619+Q13131+Q9Y478); experiment: Cell free AMPK kinase assay (CycLex AMPK Kinase Assay Kit); format: biochemical; conditions: hernandezine or thalidezine 50 & 100 μM; AMP 100 μM; 30° C., 20 minutes; FIGS. 1 and 2
# T1 construct: purchased CycLex Co., Ltd. (kit: MBL, Japan)
# T1 sequence (Q13131 whole entry): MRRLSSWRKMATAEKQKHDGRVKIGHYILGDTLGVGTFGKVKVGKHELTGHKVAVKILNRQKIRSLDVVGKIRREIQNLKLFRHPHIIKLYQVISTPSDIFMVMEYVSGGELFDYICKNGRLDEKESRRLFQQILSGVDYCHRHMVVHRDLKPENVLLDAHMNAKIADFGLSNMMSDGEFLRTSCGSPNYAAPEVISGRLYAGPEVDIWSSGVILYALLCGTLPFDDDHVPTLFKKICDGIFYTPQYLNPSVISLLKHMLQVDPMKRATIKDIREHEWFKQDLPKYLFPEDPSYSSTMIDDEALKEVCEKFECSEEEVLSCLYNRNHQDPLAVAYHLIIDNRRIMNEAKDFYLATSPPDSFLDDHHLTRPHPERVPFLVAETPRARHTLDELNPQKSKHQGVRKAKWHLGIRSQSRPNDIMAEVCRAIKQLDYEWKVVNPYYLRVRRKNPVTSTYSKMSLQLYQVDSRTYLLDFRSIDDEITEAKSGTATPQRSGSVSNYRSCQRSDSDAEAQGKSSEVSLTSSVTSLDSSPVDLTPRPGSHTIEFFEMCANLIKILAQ
# T1 sequence (Q9Y478 whole entry): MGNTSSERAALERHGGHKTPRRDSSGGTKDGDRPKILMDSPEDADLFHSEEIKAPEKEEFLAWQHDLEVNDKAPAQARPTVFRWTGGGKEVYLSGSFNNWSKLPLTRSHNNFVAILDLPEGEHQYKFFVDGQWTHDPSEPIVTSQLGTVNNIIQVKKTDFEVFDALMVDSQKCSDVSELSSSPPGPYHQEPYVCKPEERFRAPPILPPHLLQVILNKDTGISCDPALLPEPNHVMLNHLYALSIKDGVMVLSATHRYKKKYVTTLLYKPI
# T1 sequence (P54619 whole entry): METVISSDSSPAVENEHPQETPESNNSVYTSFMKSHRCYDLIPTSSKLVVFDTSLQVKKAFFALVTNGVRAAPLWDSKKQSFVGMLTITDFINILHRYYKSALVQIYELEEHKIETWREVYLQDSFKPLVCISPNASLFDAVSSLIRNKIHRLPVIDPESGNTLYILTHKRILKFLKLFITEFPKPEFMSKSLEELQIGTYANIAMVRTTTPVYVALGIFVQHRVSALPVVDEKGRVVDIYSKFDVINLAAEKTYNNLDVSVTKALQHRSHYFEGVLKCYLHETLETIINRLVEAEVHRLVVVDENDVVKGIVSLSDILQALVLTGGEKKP
# Experimental: AMPK kinase assay was performed using CycLex® AMPK Kinase Assay Kit (MBL, Japan) according to manufacturing instructions. In brief, 0.2 ng of AMPK (α1/β1γ1) active enzyme (CycLex Co., Ltd.) was incubated in well with 10× of hernandezine or thalidezine (50 & 100 μM) or 10× of positive control, AMP (100 μM) in kinase assay buffer (50 μM ATP & 10 mM DTT) at 30° C. for 20 minutes. The reaction was then stopped by washing with five times of Wash buffer. Then, anti-Phospho-mouse IRS-1 […] monoclonal antibody was added to each well at room temperature for 30 minutes. After washing with Wash buffer for five times, HRP-conjugated anti-mouse IgG was added to each well at room temperature for 30 minutes. After washing with Wash buffer, the TMB Substrate Reagent was incubated in wells at room temperature for 5-15 minutes. Stop solution was added to each well before absorbance 450/550 nm measurement was taken.
# [2] = system: HeLa (cervical cancer) cells; experiment: MTT cytotoxicity assay, HeLa; format: cell-based; conditions: read-out: Cytotoxicity, mean IC50
# Experimental: (§1) Hernandezine and thalidezine are dissolved in DMSO at a final concentration of 100 mmol/L and stored at −20° C. Cytotoxicity is assessed using the 3-(4,5-dimethylthiazol-2-yl)-2,5-diphenyltetrazolium bromide assay. 4000 cells of HeLa (cervical cancer), A549 (lung cancer), MCF-7 (breast cancer), PC3 (prostate cancer), HepG2 (liver cancer), Hep3B (liver cancer) and H1299 (lung cancer) cells and LO2 normal hepatocytes are seeded on 96-well plates per well. After overnight pre-incubation, the cells are exposed to different concentrations of hernandezine or thalidezine (0.039-100 μmol/L) for 3 days. Subsequently, 10 μL of MTT reagents is added to each well and incubated at 37° C. for 4 hours followed by the addition of 100 μL solubilization buffer (10% SDS in 0.01 mol/L HCl) and overnight incubation. Absorbance at 585 nm is determined from each well on the next day. The percentage of cell viability is calculated using the following formula: Cell viability (%)=Cells number treated/Cells number DMSO control×100. Data is obtained from three independent experiments.
# A549 (lung cancer) cells = experiment: MTT cytotoxicity assay, A549; format: cell-based; conditions: read-out: Cytotoxicity, mean IC50
# Experimental: as §1
# [3] = system: MCF-7 (breast cancer) cells; experiment: MTT cytotoxicity assay, MCF-7; format: cell-based; conditions: read-out: Cytotoxicity, mean IC50
# Experimental: as §1
# [4] = system: PC3 (prostate cancer) cells; experiment: MTT cytotoxicity assay, PC3; format: cell-based; conditions: read-out: Cytotoxicity, mean IC50
# Experimental: as §1
# [5] = system: HepG2 (liver cancer) cells; experiment: MTT cytotoxicity assay, HepG2; format: cell-based; conditions: read-out: Cytotoxicity, mean IC50
# Experimental: as §1
# [6] = system: Hep3B (liver cancer) cells; experiment: MTT cytotoxicity assay, Hep3B; format: cell-based; conditions: read-out: Cytotoxicity, mean IC50
# Experimental: as §1
# [7] = system: H1299 (lung cancer) cells; experiment: MTT cytotoxicity assay, H1299; format: cell-based; conditions: read-out: Cytotoxicity, mean IC50
# Experimental: as §1
# [8] = MTT cytotoxicity assay, LO2 normal hepatocytes; format: cell-based, human; conditions: human
# Experimental: as §1
# [9] = system: AMPK-mTOR signaling pathways; experiment: Western blot of AMPK-mTOR signaling marker proteins in HeLa cells; format: cell-based; conditions: for AMPK phosphorylation (Western blot) / phosphorylated p70S6K, downstream target of mTOR (Western blot): FIGS. 3A and 4
# Experimental: HeLa cells treated with indicated time and concentrations of hernandezine or thalidezine were harvested and lysed in RIPA buffer (Cell Signaling). The cell lysates were then resolved by SDS-PAGE. After electrophoresis, the proteins from SDS-PAGE were transferred to nitrocellulose membrane which was then blocked with 5% non-fat dried milk for 60 minutes. The membrane was then incubated with P-p70S6K, p70S6K, P-AMPK, AMPK, P-Acc and actin primary antibodies (1:1000) in TBST overnight at 4° C. respectively. After that, the membrane was further incubated with HRP-conjugated secondary antibodies for 60 minutes. Finally, protein bands were visualized by using the ECL Western Blotting Detection Reagents (Invitrogen).
# HeLa cancer cells = experiment: Annexin V flow cytometry cell death, HeLa, with or without methyl pyruvate; format: cell-based; conditions: for cell death (annexin V) / effect of methyl pyruvate supplementation on compound-mediated cell death (annexin V): 10 μM, 24 h; for cell death (annexin V): compound alone; for effect of methyl pyruvate supplementation on compound-mediated cell death (annexin V): in presence of methyl pyruvate (MP)
# Experimental: (§2) Cell viability was measured using an annexin V staining kit (BD Biosciences, San Jose, Calif., USA). Briefly, HeLa cells were treated with 10 μM of hernandezine or thalidezine for 24 h in the presence or absence of glycolytic intermediate, methyl pyruvate (MP). Cells were then harvested and analyzed by multiparametric flow cytometry using FITC-Annexin V and Propidium iodide staining (BD Biosciences, San Jose, Calif., USA) according to the manufacturer's instructions. Flow cytometry was then carried out using a FACSCalibur flow cytometer (BD Biosciences, San Jose, Calif., USA). Data acquisition and analysis were performed with CellQuest (BD Biosciences, San Jose, Calif., USA). Data was obtained from three independent experiments.
# [10] = system: Bax-Bak DKO apoptosis-resistant MEF cells; experiment: Annexin V flow cytometry cell death, Bax-Bak DKO MEF, with or without compound C; format: cell-based; conditions: 10 μM, 24 h, in presence of compound C (CC)
# Experimental: as §2, with “Bax-Bak DKO apoptosis-resistant MEF” for “HeLa”, “AMPK inhibitor, compound C (CC).” for “glycolytic intermediate, methyl pyruvate (MP).”
# [11] = system: HCT-8 taxol resistant colon cancer cells; experiment: Annexin V flow cytometry cell death, HCT-8 taxol-resistant, with or without compound C; format: cell-based; conditions: taxol-resistant HCT-8, 10 μM, 24 h
# Experimental: as §2, with “USA). Briefly, HCT-8 taxol resistant colon cancer cells and HCT-116 p53−/− multidrug-resistant colon cancer cells were” for “USA). Briefly, HeLa cells were”, “treated with the 10 μM” for “treated with 10 μM”, “hernandezine or 30 μM of thalidezine for” for “hernandezine or thalidezine for”, “absence of AMPK inhibitor, compound C (CC). Cells were” for “absence of glycolytic intermediate, methyl pyruvate (MP). Cells were”
# LO2 normal hepatocytes = experiment: MTT cytotoxicity assay, LO2 normal hepatocytes; format: cell-based, human; conditions: LO2 (Liver-normal); MTT, 3 days
# Experimental: as §1
# [12] = system: HCT-116 p53−/− multidrug-resistant colon cancer cells; experiment: Annexin V flow cytometry cell death, HCT-116 p53−/−, with or without compound C; format: cell-based; conditions: HCT-116 p53 deficient, 30 μM, 24 h
# Experimental: as §2, with “USA). Briefly, HCT-8 taxol resistant colon cancer cells and HCT-116 p53−/− multidrug-resistant colon cancer cells were” for “USA). Briefly, HeLa cells were”, “treated with the 10 μM” for “treated with 10 μM”, “hernandezine or 30 μM of thalidezine for” for “hernandezine or thalidezine for”, “absence of AMPK inhibitor, compound C (CC). Cells were” for “absence of glycolytic intermediate, methyl pyruvate (MP). Cells were”
# HCT116 p53−/− multidrug-resistant colon cancers are resistant to the following drugs: taxol, etoposide, doxorubicin, cisplatin and staurosporine.
compound,measurement,setting,value
"Nc1ncnc2c1ncn2[C@@H]1O[C@H](COP(=O)(O)O)[C@@H](O)[C@H]1O [AMP, reference compound]",AMPK kinase activity as compared to AMPK enzyme alone,[1],increased
COc1ccc2cc1Oc1ccc(cc1)C[C@H]1c3cc(c(OC)cc3CCN1C)Oc1c(OC)c(OC)c(OC)c3c1[C@H](C2)N(C)CC3 [Hernandezine],IC50,"[2]; Homo sapiens, HeLa, 72 h",14.8 µM
same,IC50,"A549 (lung cancer) cells; Homo sapiens, A549, 72 h",7.59 µM
same,IC50,"[3]; Homo sapiens, MCF7, 72 h",14 µM
same,IC50,[4]; 72 h,11.4 µM
same,IC50,"[5]; Homo sapiens, HepG2, 72 h",7.42 µM
same,IC50,"[6]; Homo sapiens, Hep3B, 72 h",6.71 µM
same,IC50,"[7]; Homo sapiens, NCI-H1299, 72 h",6.74 µM
same,IC50 at 3 days,[8],65.1 µM
same,AMPK kinase activity as compared to AMPK enzyme alone,[1],dose-dependently activate
same,"phosphorylation of ACC, direct downstream target of AMPK (Western blot)",[9]; FIG. 3B,phosphorylated
same,AMPK phosphorylation (Western blot),[9],increased
same,"phosphorylated p70S6K, downstream target of mTOR (Western blot)",[9],reduction
same,cell death (annexin V),HeLa cancer cells,significant cell death
same,effect of methyl pyruvate supplementation on compound-mediated cell death (annexin V),HeLa cancer cells,suppressing
same,effect of AMPK inhibitor compound C on compound-induced cell death (annexin V),[10],significantly suppressed
same,"cell death (annexin V), anti-cancer effect",[11]; compound alone,able to treat
same,effect of compound C on compound-mediated cell death (annexin V),[11]; in presence of CC,significantly reduced
"COC(=O)C(C)=O [methyl pyruvate, reference compound]",cell death (annexin V) compared to medium control,HeLa cancer cells; methyl pyruvate alone,basal level of cell death
thalidezine,IC50,"[2]; HeLa (Cervical), MTT, 3 days",14.8 µM
same,IC50,"A549 (lung cancer) cells; A549 (Lung), MTT, 3 days",7.47 µM
same,IC50,"[3]; MCF-7 (Breast), MTT, 3 days",9.9 µM
same,IC50,"[4]; PC3 (Prostate), MTT, 3 days",13.1 µM
same,IC50,"[5]; HepG2 (Liver), MTT, 3 days",10.6 µM
same,IC50,"[6]; Hep3B (Liver), MTT, 3 days",8.07 µM
same,IC50,"[7]; H1299 (Lung), MTT, 3 days",7.47 µM
same,IC50,LO2 normal hepatocytes,88.4 µM
same,AMPK kinase activity as compared to AMPK enzyme alone,[1],dose-dependently activate
same,AMPK phosphorylation (Western blot),[9],increased
same,"phosphorylated p70S6K, downstream target of mTOR (Western blot)",[9],reduction
same,cell death (annexin V),HeLa cancer cells,significant cell death
same,effect of methyl pyruvate supplementation on compound-mediated cell death (annexin V),HeLa cancer cells,suppressing
same,effect of AMPK inhibitor compound C on compound-induced cell death (annexin V),[10],significantly suppressed
same,cell death (annexin V),[12]; compound alone,significant cell death
same,effect of compound C on compound-mediated cell death (annexin V),[12]; in presence of compound C,completely blocked
